This note sets out measurements from patent US9315489B2, “Compounds and compositions for inhibiting the activity of ABL1, ABL2 and BCR-ABL1” (Novartis AG, priority 2012, dated 2016).

Data set [1] relates to Ba/F3-BCR-ABL1-T315I cells. The experiment in a line: Ba/F3-BCR-ABL1-T315I cellular proliferation assay. The class given is cell-based, murine. Conditions: Mus musculus; 48 hours; read-out: Ba/F3-BCR-ABL1-T315I IC50. From the text:
The murine bone marrow-derived cell line Ba/F3 was used to generate the appropriate cell line models. Ba/F3 cells were obtained from the German Collection of Microorganisms and Cell Cultures (DSMZ, Braunschweig and DSMZ No. ACC 300). […] These cells are referred to as Ba/F3-WT.
To generate Ba/F3 cells that depend on BCR-ABL1 expression for growth and survival, Ba/F3 cells were engineered to express BCR-ABL1 using retroviral transduction with a MSCV based retroviral vector containing a p210 BCR-ABL1expression cassette. When grown in the absence of IL-3, the proliferation of the cells is dependent on the expression of BCR-ABL1. (Daley, G. Q. and Baltimore, D. Transformation of an interleukin 3-dependent hematopoietic cell line by the chronic myeloid leukemia-specific p210 BCR-ABL1 protein. PNAS 1988; 85:9312-9316). These cells are referred to as Ba/F3-BCR-ABL1-WT. A similar approach was used to generate Ba/F3 cells that depend on a BCR-ABL1 variant in which threonine 315 is replaced with isoleucine. These cells are referred to as Ba/F3-BCR-ABL1-T3151.
Ba/F3-WT cells were maintained in RPMI1640 media with L-glutamine, HEPES (Lonza), 10% FBS (Gibco) and 5 ng/ml IL-3 (Calbiochem). Ba/F3-BCR-ABL1-WT cells and Ba/F3-BCR-ABL1-T3151 cells were maintained in RPMI1640 media with L-glutamine, HEPES (Lonza) and 10% FBS (Gibco).
For each cell line, the cell density was adjusted to 50 000 cells/mL and 50 μL (2500 cells) added per well of a 384-well assay plate.
Test compounds were resuspended in DMSO at a concentration of 10 mM. A serial three-fold dilution of each compound with DMSO was performed in 384-well plates using the Janus Liquid Dispenser (PerkinElmer). Compound was delivered to the assay plates containing 2500 cells in a 50 μL volume via Acoustic delivery from an ATS-100 (EDC). For Ba/F3-BCR-ABL1-WT cell assays, […] of each compound dilution was transferred to the assay plate for final assay concentrations of 0.4 μM, 0.13 μM, 0.044 μM, 0.015 μM, 0.005 μM, 0.001 μM, 0.00033 μM, 0.00011 μM, 0.000037 μM, 0.000012 μM. For Ba/F3-WT and Ba/F3-BCR-ABL1-T315I cell assays, […] of each compound dilution was transferred to the assay plate for final assay concentrations of 10 μM, 3.33 μM, 1.11 μM, 0.37 μM, 0.12 μM, 0.041 μM, 0.014 μM, 0.0046 μM, 0.0015 μM, 0.00051 μM.
Cells were incubated at 37° C. in a humidified environment with 5% carbon dioxide for 48 hours. Britelite plus solution (Perkin Elmer) was prepared according to the manufacturer's instructions and 25 μL added to each well of the assay plate. Plates were incubated for 3-5 minutes and the luminescence detected on an EnVision Multimode plate reader (Perkin Elmer). The degree of luminescence correlates with the number of cells in each well. The effect of each inhibitor concentration can therefore be calculated and IC50 values generated.

In data set [2] the target is T1, ABL1 (64-515) (Homo sapiens (Human), UniProt P00519). Description: Radio ABL1 (64-515) assay (radiometric filter-binding). The class given is biochemical.
Protocol: For determination of ABL kinase activity, the radiometric filter-binding assay was used. […] Pre-incubation of enzyme with compounds (when stated) was performed by exposing the enzyme to compounds prior to addition of the substrate mixture (ATP and/or peptide substrate). […] Millipore, Volketswil, Switzerland) prepared according to the manufacturer's instructions. Filter-plates were washed 3× with 0.5% H3PO4, followed by addition of 30 μL scintillation cocktail (Microscint, Perkin Elmer) per well and then analysed in a TopCount NXT scintillation counter (Perkin Elmer). Results were expressed as IC50 values.
Data set [3] can be described thus: Compound concentration in mouse brain and plasma. The data set is classed as in vivo. Particulars: 5 minutes after a single intravenous injection of 1 mg/kg in mice; for Kp at 5 min / concentration at 5 min: mouse; for Kp at 5 min: brain/plasma, read-out: Mean Ratio (brain/plasma); for concentration at 5 min: plasma, read-out: Mean blood (drug concentration in plasma).
Protocol: Approximately two parts volume of MeOH/water (2/8 v/v) were added to the preweighted brain samples (˜250 mg) and subsequently homogenized using Covaris™ instrument. A 50 μL aliquot was subjected to protein precipitation and analysis as described below.
Fifty μL aliquots of blood or brain homogenate from animals treated with c-ABL inhibitors were first spiked with 5 μL of the internal standard (N-(4-methyl-3-((4-(6-methylpyridin-3-yl)pyrimidin-2-yl)amino)phenyl)-4-((4-methylpiperazin-1-yl)methyl)benzamide for positive ion mode 5-chloro-N-(4-(N-(cyclohexylcarbamoyl)sulfamoyl)-phenethyl)-2-methoxybenzamide for negative ion mode, respectively), subsequently deproteinated by adding MeCN (200 μL), centrifuged, the supernatant evaporated to dryness, and re-dissolved in 100 μL of a MeOH/water (1/1 v/v). Five μL were subjected to HPLC-MS/MS analysis. Chromatographic separation from interfering endogenous and exogenous contaminants was achieved on an Phenomenex™ Polar RP reversed-phase HPLC column (particle size: 2.5 μm; column dimensions: 2×50 mm) using a linear gradient of 100% water containing 1% formic acid (A), and MeOH supplemented with 1% formic acid (B), which was run over 6.0 min from 5% to 90% B, then kept at 100% B for 1.0 min, and a subsequent 1.5 min postrun with re-equilibration of the column. The column was kept at 50° C. The flow of 350 μL/min from the HPLC system (Flux Rheos Allegro LC pump and CTC Pal autosampler) was directly introduced into the ion source of an Finnigan™ Quantum Ultra MS-detector (triple stage quadrupole mass analyzer) and subjected to heated electrospray ionization (HESI).
c-ABL inhibitors were specifically detected using multiple reaction monitoring from their quasi-molecular parent ion ([M+H]^+ or [M−H]^−) to specific daughter ions as given in the table below. Quantification of blood and brain levels of c-ABL inhibitors compounds were based on a 6-level calibration curve made in triplicate.

For another data set, the system named is Ba/F3-BCR-ABL1-WT cells. The experiment in a line: Ba/F3-BCR-ABL1-WT cellular proliferation assay. The data set is classed as cell-based, murine. Conditions: Mus musculus; 48 hours; read-out: Ba/F3-BCR-ABL1-WT IC50.
The target of data set [4] is T1, ABL1 (64-515). Description: Caliper ABL1 (64-515) assay (microfluidic mobility shift). The class given is biochemical.
Protocol: All assays were performed in 384-well microtiter plates. Each assay plate contained 8-point serial dilutions for 40 test compounds, as well as four 8-point serial dilutions of staurosporine as a reference compound, plus 16 high and 16 low controls. Liquid handling and incubation steps were done on a Thermo CatX workstation equipped with Innovadyne Nanodrop Express. Between pipetting steps, tips were cleaned in wash cycles using wash buffer.
The assay plates were prepared by addition of 50 nL per well of compound solution in 90% DMSO. […] Plates with terminated kinase reactions were transferred to the Caliper LC3000 workstations for reading. Phosphorylated and unphosphorylated peptides were separated using the Caliper microfluidic mobility shift technology. Briefly, samples from terminated kinase reactions were applied to the chip. Analytes are transported through the chip by constant buffer flow and the migration of the substrate peptide is monitored by the fluorescence signal of its label. Phosphorylated peptide (product) and unphosphorylated peptide (substrate) are separated in an electric field by their charge/mass ratio. Kinase activities were calculated from the amounts of formed phospho-peptide. IC50 values were determined from percent inhibition values at different compound concentrations by non-linear regression analysis.
Test compounds were dissolved in DMSO (10 mM) and transferred into 1.4 mL flat bottom or V-shaped Matrix tubes carrying a unique 2D matrix. The stock solutions were stored at +2° C. if not used immediately. For the test procedure the vials were defrosted and identified by a scanner whereby a working sheet was generated that guided the subsequent working steps.
Compound dilutions were made in 96-well plates. This format enabled the assay of maximally 40 individual test compounds at 8 concentrations (single points) including 4 reference compounds. The dilution protocol included the production of “pre-dilution plates”, “master plates” and “assay plates”.
Polypropylene 96-well plates were used as pre-dilution plates. […] All dilution steps were done on a HamiltonSTAR robot.
These plates were used directly for the assay which was performed in a total volume of 9.05 μL.

T1 sequence (P00519 64-515): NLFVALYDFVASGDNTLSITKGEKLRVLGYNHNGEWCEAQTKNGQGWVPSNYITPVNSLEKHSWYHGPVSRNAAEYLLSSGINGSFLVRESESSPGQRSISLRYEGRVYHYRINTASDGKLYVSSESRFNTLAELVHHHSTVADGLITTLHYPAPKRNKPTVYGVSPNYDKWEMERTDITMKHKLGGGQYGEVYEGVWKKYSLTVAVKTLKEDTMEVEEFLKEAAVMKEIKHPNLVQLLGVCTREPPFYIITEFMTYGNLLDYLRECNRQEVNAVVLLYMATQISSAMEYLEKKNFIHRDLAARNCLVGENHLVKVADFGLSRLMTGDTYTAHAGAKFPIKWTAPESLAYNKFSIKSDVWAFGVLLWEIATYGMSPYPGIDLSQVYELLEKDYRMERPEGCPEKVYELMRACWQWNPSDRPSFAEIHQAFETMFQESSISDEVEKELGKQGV
Protocol for Ba/F3-BCR-ABL1-WT cells: To generate Ba/F3 cells that depend on BCR-ABL1 expression for growth and survival, Ba/F3 cells were engineered to express BCR-ABL1 using retroviral transduction with a MSCV based retroviral vector containing a p210 BCR-ABL1expression cassette. […] These cells are referred to as Ba/F3-BCR-ABL1-WT.
Cells were incubated at 37° C. in a humidified environment with 5% carbon dioxide for 48 hours. Britelite plus solution (Perkin Elmer) was prepared according to the manufacturer's instructions and 25 μL added to each well of the assay plate. […] The degree of luminescence correlates with the number of cells in each well. The effect of each inhibitor concentration can therefore be calculated and IC50 values generated.

As to `O=C(Nc1ccc(OC(F)(F)Cl)cc1)c1cccc(-c2cncnc2)c1` [Example 10, N-(4-(Chlorodifluoromethoxy)phenyl)-3-(pyrimidin-5-yl)benzamide], the IC50 in data set [1] is 400 nM. The IC50 at ABL1 (64-515) [2] was determined as 9.5 nM. In data set [3], the “Mean brain (drug concentration in brain)” value was 4093 pmol/g, the Kp at 5 min came to 3.24 and the concentration at 5 min stood at 1260 nM. Moreover, the IC50 in the data set with Ba/F3-BCR-ABL1-WT cells was determined as 2.1 nM.

On to `O=C(Nc1ccc(SC(F)(F)F)cc1)c1cccc(-c2cncnc2)c1` [Example 11, 3-(Pyrimidin-5-yl)-N-(4-((trifluoromethyl)thio)phenyl)benzamide], for which the IC50 was 563 nM in data set [1], below 3 nM at ABL1 (64-515) [2] and 3.9 nM in the data set with Ba/F3-BCR-ABL1-WT cells. The “Mean brain (drug concentration in brain)” value in data set [3] came out at 7341 pmol/g. Also, the Kp at 5 min in data set [3] stood at 4.99. In addition, in data set [3], the concentration at 5 min was found to be 1470 nM.

For the compound `Cc1ccc(C(=O)Nc2ccc(OC(F)(F)F)cc2)cc1-c1cncnc1` [Example 14, 4-Methyl-3-(pyrimidin-5-yl)-N-(4-(trifluoromethoxy)phenyl)benzamide], the IC50 in data set [1] turned out to be 306 nM; on ABL1 (64-515) [2], 8.5 nM; at ABL1 (64-515) [4] it was 3.5 nM; in the data set on Ba/F3-BCR-ABL1-WT cells it was 2.1 nM.

`N#CC1(c2ncc(C(=O)Nc3ccc(OC(F)(F)F)cc3)cc2-c2cncnc2)CCC1` [Example 48, 6-(1-Cyanocyclobutyl)-5-(pyrimidin-5-yl)-N-(4-(trifluoromethoxy)phenyl)nicotinamide]: the IC50 in data set [1] was found to be 363 nM; on ABL1 (64-515) [2] it was 9 nM; on ABL1 (64-515) [4], 6.2 nM; in the data set on Ba/F3-BCR-ABL1-WT cells it was 18 nM.

Consider `O=C(Nc1ccc(OC(F)(F)F)cc1)c1cnc(OCCO)c(-c2cncnc2)c1` [Example 52, 6-(2-hydroxyethoxy)-5-(pyrimidin-5-yl)-N-(4-(trifluoromethoxy)phenyl)nicotinamide], for which the IC50 in data set [1] was determined as 499 nM; on ABL1 (64-515) [2], 23 nM; on ABL1 (64-515) [4], 23 nM.

Take `O=C(Nc1ccc(OC(F)(F)F)cc1)c1cnc(Cl)c(-c2cncnc2)c1` [Example 56, 6-Chloro-5-(pyrimidin-5-yl)-N-(4-(trifluoromethoxy)phenyl)nicotinamide]: the IC50 worked out at 488 nM in data set [1], 10 nM at ABL1 (64-515) [2] and 9.9 nM at ABL1 (64-515) [4].

On to `CCOc1ncc(C(=O)Nc2ccc(OC(F)(F)F)cc2)cc1-c1cncnc1` [Example 58, 6-Ethoxy-5-(pyrimidin-5-yl)-N-(4-(trifluoromethoxy)phenyl)nicotinamide], for which the IC50 in data set [1] was 754 nM; at ABL1 (64-515) [2] it was 49 nM; on ABL1 (64-515) [4] it was 9.4 nM.

In the case of `O=C(Nc1ccc(OC(F)(F)Cl)cc1)c1cnc(OC2CCOCC2)c(-c2cncnc2)c1` [Example 67, N-(4-(Chlorodifluoromethoxy)phenyl)-5-(pyrimidin-5-yl)-6-((tetrahydro-2h-pyran-4-yl)oxy)nicotinamide], the IC50 in data set [1] came to 456 nM; on ABL1 (64-515) [2], 1.2 nM; on ABL1 (64-515) [4] it was 3.8 nM.

Regarding `COC(=O)c1ccc(C(=O)Nc2ccc(OC(F)(F)F)cc2)cc1-c1cncnc1` [Example 68, Methyl 2-(pyrimidin-5-yl)-4-((4-(trifluoromethoxy)phenyl)carbamoyl)benzoate], the IC50 in data set [1] is 177 nM; on ABL1 (64-515) [2] it was below 3 nM; at ABL1 (64-515) [4], 1.6 nM.

On to `O=C(Nc1ccc(OC(F)(F)F)cc1)c1cncc(-c2cncc(F)c2)c1` [Example 75, 5′-Fluoro-N-(4-(trifluoromethoxy)phenyl)-[3,3′-bipyridine]-5-carboxamide], for which the IC50 in data set [1] was found to be 655 nM; at ABL1 (64-515) [4] it was 26 nM; in the data set on Ba/F3-BCR-ABL1-WT cells it was 38 nM.

As to `O=C(Nc1ccc(OC(F)(F)Cl)cc1)c1cnc(Cl)c(-c2cncnc2)c1` [Example 76, 6-Chloro-N-(4-(chlorodifluoromethoxy)phenyl)-5-(pyrimidin-5-yl)nicotinamide], the values for the IC50 (in data set [1]; at ABL1 (64-515) [4]; with Ba/F3-BCR-ABL1-WT cells) were 61 nM, 2.9 nM and 2 nM, respectively.

In the case of `O=C(Nc1ccc(OC(F)(F)Cl)cc1)c1cnc(Cl)c(-c2cncc(F)c2)c1` [Example 78, 2-Chloro-N-(4-(chlorodifluoromethoxy)phenyl)-5′-fluoro-[3,3′-bipyridine]-5-carboxamide], the IC50 turned out to be 408 nM in data set [1], 3.9 nM at ABL1 (64-515) [4] and 7 nM in the data set with Ba/F3-BCR-ABL1-WT cells.
